{
  "source": "patent US20180014536A1",
  "about": "“AGENT FOR IMPROVING PLANT GROWTH AND METHOD FOR PRODUCING PLANT USING SAME” (FUSO CHEMICAL CO., LTD., priority 2015, published 2018)",
  "key": {"Japanese mustard spinach [1]": {"system": "Japanese mustard spinach", "test": "Verification experiment 2: high temperature and low sunshine stress, hydroponics (second time-B)"}, "Japanese mustard spinach [2]": {"system": "Japanese mustard spinach", "test": "Verification experiment 2: high temperature stress, hydroponics, plenty of sunlight (second time-A)"}, "radish sprouts [3]": {"system": "radish sprouts", "test": "Verification experiment 5: alkaline stress (potassium hydroxide)", "settings": "leaf spray, then immersed in pH 9.0 solution", "quoted_text": "Next, by use of radish sprouts, a resistance to alkaline stress caused by potassium hydroxide was investigated.\nZerumbone was sprayed onto the leaf surfaces of the cotyledons of radish sprouts seedlings three to four days after germination, and the seedlings were then cultivated for several days. Meanwhile, only water was sprayed onto the leaf surfaces of another radish sprouts seedlings, and the seedlings were then cultivated for several days. The radish sprouts seedlings thus cultivated were immersed in a pH 9.0 acid solution."}, "cucumber [4]": {"system": "cucumber", "test": "Verification experiment 11: ultraviolet ray stress, TTC test", "type": "in vivo", "settings": "cut leaves irradiated with ultraviolet ray for 24 hours"}, "Japanese mustard spinach [5]": {"system": "Japanese mustard spinach", "test": "Verification experiment 1: high temperature stress, hydroponics (first time)", "type": "in vivo", "settings": "first time", "experimental": "In order to confirm that the above substances have an efficacy such as alleviation of the various stresses on a plant or promotion of plant growth, some verification experiments were conducted. In each of the verification experiments, solutions of the above substances were used. A concentration thereof was in a range from 0.01 ppm to 10 ppm, in order to exert a sufficient efficacy on a plant. This concentration was appropriately adjusted for each verification experiment. For comparison, similar verification experiments using sanguinarine were conducted. In such a verification experiment for an identical purpose to the above, a concentration of sanguinarine was set to be identical to those of the above substances. A verification experiment for high temperature stress was conducted by use of Japanese mustard spinach. The experiment was conducted in the following procedures. […] Note that the agent used was zerumbone."}, "autumn fern [6]": {"system": "autumn fern", "test": "Verification experiment 15: organic acid stress, Pteridophyta, TTC test", "type": "in vivo", "settings": "cut leaves immersed in 0.4% acetic acid solution for three hours"}, "cucumber [7]": {"system": "cucumber", "test": "Verification experiment 6: dry stress", "type": "in vivo", "experimental": "By use of cucumber, a resistance to dry stress was investigated. 3 ml of Zerumbone was added to cucumber seedlings immediately after germination. The cucumber seedlings were cultivated for 18 days. Meanwhile, another cucumber seedlings were cultivated for 18 days without Zerumbone added thereto. Throughout the cultivation period, a minimum amount of water was given and watering was conducted a minimum number of times so that the soil surface was always kept dry. […] A weight of each of the seedlings was measured. […] Note that, except for the agent, the cultivation conditions used were identical to those of the case where zerumbone was used."}, "racomitrium moss [8]": {"system": "racomitrium moss", "test": "Verification experiment 18: organic acid stress, Bryophyta, TTC test", "type": "in vivo", "settings": "samples immersed in 0.4% acetic acid solution for three hours"}, "cucumber [9]": {"system": "cucumber", "test": "Verification experiment 9: organic acid stress, TTC test", "type": "in vivo", "settings": "cut leaves immersed in 0.4% acetic acid solution for two hours"}, "racomitrium moss [10]": {"system": "racomitrium moss", "test": "Verification experiment 17: high temperature stress, Bryophyta, TTC test", "type": "in vivo", "settings": "samples immersed in tap water of 45° C. for 18 hours", "experimental": "As a Bryophyta, racomitrium moss was used, which is a Bryophyta widely used for greening a park, a rooftop, and a garden. Verification experiments for various stresses were conducted thereon. The experiments were conducted in the following procedures. […] Meanwhile, the control sample was sprayed only with water. After the spraying, the racomitrium mosses were cultivated at 25° C. for one day. Then, the samples were subjected to various stresses. Thus, cell activities of the samples were determined by TTC test. […] On such samples, TTC test was conducted."}, "racomitrium moss [11]": {"system": "racomitrium moss", "test": "Verification experiment 19: ammonia stress, Bryophyta, TTC test", "type": "in vivo", "settings": "samples immersed in 1.0% ammonia solution for 48 hours"}, "cucumber [12]": {"system": "cucumber", "test": "Verification experiment 12: salt stress, TTC test", "type": "in vivo", "settings": "cut leaves immersed in 1.0% saline water for 24 hours"}, "radish sprouts [13]": {"system": "radish sprouts", "test": "Verification experiment 4: acid stress (nitric acid)", "settings": "leaf spray, then immersed in pH 2.5 acid solution for one minute", "quoted_text": "By use of radish sprouts, a resistance to acid stress caused by nitric acid was investigated.\nZerumbone was sprayed onto the leaf surfaces of the cotyledons of radish sprouts seedlings three to four days after germination, and the seedlings were then cultivated for several days. Meanwhile, only water was sprayed onto the leaf surfaces of another radish sprouts seedlings, and the seedlings were then cultivated for several days. The radish sprouts seedlings thus cultivated were immersed in a pH 2.5 acid solution for one minute."}, "radish sprouts [14]": {"system": "radish sprouts", "test": "Verification experiment 7: recovering from dry stress", "type": "in vivo", "settings": "among the four samples; sprayed, dried one night, replanted", "from_the_text": "Next, radish sprouts seedlings were dried so that the radish sprouts seedlings were severely damaged. Subsequently, adequate water was given to the radish sprouts seedlings. Thus, whether or not the radish sprouts seedlings could be recovered from the damage was verified. First, radish sprouts were immersed in water during night so that germination thereof was promoted. After germination, radish sprouts seedlings planted in vermiculite were impregnated in a nutrient fluid of the Ensi formulation. The radish sprouts seedlings were cultured at 25° C. for five days. A light period during the culture was six hours. Then, zerumbone was sprayed to the radish sprouts seedlings. Meanwhile, water was sprayed to samples used as a control. These radish sprouts seedlings were cultured for one more day. Thereafter, the roots thereof were washed so that the vermiculite was removed therefrom. Then, the roots were wiped with a paper towel. The radish sprouts seedlings were then arranged on a tray, and were dried for one night. The radish sprouts seedlings thus dried were planted in culture soil obtained by blending leaf soil and […] soil in a ratio of 4:6 in a pot."}, "cucumber [15]": {"system": "cucumber", "test": "Verification experiment 3: high temperature stress, soil culture", "type": "in vivo", "settings": "leaf spray on cotyledons, 10 days cultivation", "experimental": "Next, an experiment was conducted to confirm effectiveness of the agent in soil culture of cucumber. First, seeds of cucumber were sown in culture soil thrown into 15 cm-pots (size-5 pots) such that the seeds have spaces therebetween. The culture soil contains, as fertilizer components, 180 mg/L of nitrogen, 120 mg/L of phosphoric acid, and 220 mg/L of potassium. The soil was adjusted at pH 6.0. Watering was performed every early morning. […] A growth difference was observed therebetween."}, "cucumber [16]": {"system": "cucumber", "test": "Verification experiment 8: low temperature stress, TTC test", "type": "in vivo"}, "cucumber [17]": {"system": "cucumber", "test": "Verification experiment 10: ammonia stress, TTC test", "type": "in vivo", "settings": "cut leaves immersed in 1.0% ammonia solution for three hours"}, "leaf lettuce": {"system": "leaf lettuce", "test": "Verification experiment 13: hydroponics test on leaf lettuce in vinyl greenhouse in summer", "type": "in vivo"}, "autumn fern [18]": {"system": "autumn fern", "test": "Verification experiment 16: ammonia stress, Pteridophyta, TTC test", "type": "in vivo", "settings": "cut leaves immersed in 1.0% ammonia solution for 48 hours"}, "autumn fern [19]": {"system": "autumn fern", "test": "Verification experiment 14: high temperature stress, Pteridophyta, TTC test", "type": "in vivo", "settings": "cut leaves immersed in tap water of 45° C. for 18 hours", "experimental": "As a Pteridophyta, autumn fern was used, which is a representative Pteridophyta often found in, […] bright forest. Verification experiments for various stresses were conducted thereon. The experiments were conducted in the following procedures. […] Meanwhile, the leaf surfaces of the control sample were sprayed only with water. After the spraying onto the leaf surfaces, the autumn fern seedlings were cultivated at 25° C. for one day. The leaves were cut in a suitable size, and were then subjected to various stresses. Then, cell activities of the samples were determined by TTC test. The leaves that were cut in the suitable size were immersed in tap water of 45° C. for 18 hours. On such leaves, TTC test was conducted."}, "[20]": {"settings": "leaf lettuce, summer greenhouse hydroponics"}, "[21]": {"settings": "leaf lettuce, summer greenhouse hydroponics, listed as zerumbone"}},
  "note": "Where “and” joins values, the source holds several entries; their conditions need not be identical. Identical values can stand only once.",
  "data": [
    {"molecule": "C/C1=C\\CC(C)(C)/C=C/C(=O)/C(C)=C/CC1", "note": "[Zerumbone, zerumbone]", "values": [
      {"measurement": "growth better than the growth of the control samples", "setting": "Japanese mustard spinach [1]; Table 3 experiment, almost no sunlight", "value": "approximately 37%"},
      {"measurement": "Growth ratio (%)", "setting": "Japanese mustard spinach [1]; control = 100.0, second time-B", "value": 136.5, "unit": "%"},
      {"measurement": "Weight of 10 samples", "setting": "Japanese mustard spinach [1]; dry weight of 10 seedlings, nine days, 30-43 °C, almost no sunlight, second time-B", "value": "2.137 g and 2.163 g"},
      {"measurement": "Average", "setting": "Japanese mustard spinach [1]; second time-B", "value": 2.150, "unit": "g"},
      {"measurement": "weights greater than those of the control samples", "setting": "Japanese mustard spinach [2]; Table 2 experiment", "value": "approximately 17%"},
      {"measurement": "Growth ratio (%)", "setting": "Japanese mustard spinach [2]; control = 100.0, second time-A", "value": 116.7, "unit": "%"},
      {"measurement": "Weight of 10 samples", "setting": "Japanese mustard spinach [2]; dry weight of 10 seedlings, nine days, 30-43 °C, plenty of sunlight, second time-A", "value": "2.120 g and 2.176 g and 2.213 g and 2.298 g"},
      {"measurement": "Average", "setting": "Japanese mustard spinach [2]; second time-A", "value": 2.202, "unit": "g"},
      {"measurement": "resistance to alkaline stress (withering)", "setting": "radish sprouts [3]", "value": "gives a plant resistance to both acid and alkali"},
      {"measurement": "cells having an activity (TTC test)", "setting": "cucumber [4]", "value": "approximately half of the cells"},
      {"measurement": "Average", "setting": "Japanese mustard spinach [5]; average weight of 10 samples", "value": 1.760, "unit": "g"},
      {"measurement": "weights greater than those of the control samples", "setting": "Japanese mustard spinach [5]; average weights compared", "value": "approximately 15%"},
      {"measurement": "Growth ratio (%)", "setting": "Japanese mustard spinach [5]; control = 100.0", "value": 115.4, "unit": "%"},
      {"measurement": "Weight of 10 samples", "setting": "Japanese mustard spinach [5]; dry weight of 10 seedlings, leaf spray, nine days culture, maximum temperature 30-43 °C, plenty of sunlight", "value": "1.729 g and 1.732 g and 1.787 g and 1.792 g"},
      {"measurement": "TTC test dyeing (cell activity)", "setting": "autumn fern [6]", "value": "dyed slightly"},
      {"measurement": "average weight greater than the control samples", "setting": "cucumber [7]; 18 days dry stress", "value": "approximately 13%"},
      {"measurement": "growth compared with control (FIG. 2)", "setting": "cucumber [7]; after 18-day cultivation under dry stress", "value": "grew more greatly than the control"},
      {"measurement": "Average", "setting": "cucumber [7]; average seedling weight after 18 days dry stress", "value": 3.00, "unit": "g"},
      {"measurement": "Weight comparison (%)", "setting": "cucumber [7]; control = 100.0", "value": 113.0, "unit": "%"},
      {"measurement": "TTC test dyeing (cell activity)", "setting": "racomitrium moss [8]", "value": "dyed slightly"},
      {"measurement": "cells having an activity (TTC test)", "setting": "cucumber [9]", "value": "approximately half of the cells"},
      {"measurement": "TTC test dyeing (cell activity)", "setting": "racomitrium moss [10]", "value": "dyed slightly"},
      {"measurement": "TTC test dyeing (cell activity)", "setting": "racomitrium moss [11]", "value": "dyed slightly"},
      {"measurement": "cells alive (TTC test)", "setting": "cucumber [12]", "value": "most of the cells"},
      {"measurement": "withering of seedlings", "setting": "radish sprouts [13]", "value": "Slight withering was observed in some portions"},
      {"measurement": "samples recovered from the dry state", "setting": "radish sprouts [14]", "value": "three"},
      {"measurement": "growth of cucumber seedlings (FIG. 1)", "setting": "cucumber [15]", "value": "grown greatly"},
      {"measurement": "TTC test dyeing (cell activity)", "setting": "cucumber [16]; cut leaves left two days in dark place at 0° C.", "value": "dyed deeply"},
      {"measurement": "TTC test dyeing (cell activity)", "setting": "cucumber [16]; cut leaves left two days in dark place at −10° C.", "value": "dyed slightly"},
      {"measurement": "TTC test dyeing of leaves (cell activity)", "setting": "cucumber [16]; remaining plants cultivated two days under fluorescent lamp at 4° C.", "value": "dyed deeply except for their peripheries"},
      {"measurement": "cells having an activity (TTC test)", "setting": "cucumber [17]", "value": "a part of the cells"},
      {"measurement": "Growing speed: Harvest timing", "setting": "leaf lettuce; day on which harvest size reached 150 g to 180 g", "value": "30th day after day after germination"},
      {"measurement": "Disease resistance: Powdery mildew", "setting": "leaf lettuce; [20]", "value": "Not occurred"},
      {"measurement": "Disease resistance: Root rot", "setting": "leaf lettuce; [20]", "value": "Not occurred"},
      {"measurement": "Physiological disorder (quality): Heterophyll", "setting": "leaf lettuce; [20]", "value": "Not occurred"},
      {"measurement": "Physiological disorder (quality): Root spread condition", "setting": "leaf lettuce; [20]", "value": "Very good"},
      {"measurement": "Physiological disorder (quality): Taste", "setting": "leaf lettuce; [20]", "value": "No bitterness"},
      {"measurement": "Physiological disorder (quality): Tip burn (dead fringes of leaf)", "setting": "leaf lettuce; [20]", "value": "Not occurred"},
      {"measurement": "Physiological disorder (quality): Unproductive growth", "setting": "leaf lettuce; [20]", "value": "Not occurred"},
      {"measurement": "occurrence of a disease (overall)", "setting": "leaf lettuce; [20]", "value": "occurrence of a disease was not observed"},
      {"measurement": "physiological disorder (overall)", "setting": "leaf lettuce; [20]", "value": "no physiological disorder occurred"},
      {"measurement": "Physiological disorder (quality): Root spread condition", "setting": "leaf lettuce; [21]", "value": "far better than in the sanguinarine test section"},
      {"measurement": "Physiological disorder (quality): Taste", "setting": "leaf lettuce; [21]", "value": "no bitterness"},
      {"measurement": "TTC test dyeing (cell activity)", "setting": "autumn fern [18]", "value": "dyed slightly"},
      {"measurement": "TTC test dyeing (cell activity)", "setting": "autumn fern [19]", "value": "dyed slightly"}
    ]}
  ]
}
